The target in one data set is T1, purified PhnO protein (Escherichia coli, UniProt P16691, P2A).
T1 construct: made in house; host or cells: E. coli JM101 carrying pMON15032 (recA promoter, nalidixic acid induction)
The experiment in a line: AMPA transacylase acyl-CoA acyl donor specificity, HPLC. It is filed as biochemical, E. coli. As to conditions: for [^14C]-AMPA % Conversion: 5 minutes 30° C.; for % Activity: 1 mM acetyl-CoA = 100% reference. The protocol:
PhnO was purified from a one liter Luria Bertani broth culture of E. coli JM101 expressing a recombinant phnO gene from pMON15032 after nalidixic acid induction for three hours at 37° C. Cells were harvested by centrifugation and resuspended in 40 ml cold Tris buffer (0.1 M Tris-HCl pH 8) and placed on ice. The cell suspension was brought to 1 mM DTT and 0.5 mM PMSF. The suspension was lysed by 2 passages through a prechilled French pressure cell at 1,100 psi, centrifuged at 12,000 g (10,000 rpm in an Sorvall SA600 rotor) for 40 min at 4° C., then placed on ice. The cleared supernatants were poured into fresh 15 ml polypropylene tubes. The samples were split again into two equal portions and maintained at −80° C. until used further for purification of PhnO protein. 20 microliters of the soluble fraction was assayed for enzyme activity using the HPLC method described above in Example 2, except after terminating the assay with acid addition, the sample was stored at −80° C. A Sephacryl S200 column was prepared according to the manufacturers' instructions and equilibrated with a solution containing 20 mM Tris pH 8.0 and 0.5 mM MgCl2. The entire total soluble extract was layered over the top of the column bed after thawing on ice. Forty 9 ml fractions were collected from the column eluate, and thirty microliters of each fraction was analyzed by western blot using anti-PhnO antiserum after resolution on a 15% SDS-PAGE gel. Also, thirty microliters of each fraction was analyzed for AMPA acyl transferase activity using the method described in Example 2. […] These were represented by fractions 7 through 19 in this example, and were combined into a 100 ml volume, distributed into […] each containing 10 ml volumes, and stored at −80° C. for further use.
Anion exchange chromatography was used to determine the elution pattern of PhnO away from other contaminating proteins that co-elute during the Sephacryl S200 fractionation. One tube from the combined PhnO positive fractions was thawed on ice and injected into a 5/5 Mono-Q column pre-equilibrated with buffers A (one liter of 20 mM Tris-HCl pH 8.0 Mili-Q distilled deionized water) and B (one liter of 20 mM Tris-HCl pH 8.0, 1 M NaCl). The sample containing PhnO active protein was injected into the column and one milliliter fractions were collected. The column was washed for five minutes with a flow rate of 1.8 ml per minute Buffer A after loading the PhnO containing sample. At five minutes, Buffer B was added to the flow volume at 0.5 ml per minute for four minutes. Buffer B was ramped up to 22% of the flow volume at 10 minutes, 30% at 12 minutes, 36% at 13 minutes, 41% at 14 minutes, 46% at 15 minutes, 74% at 16 minutes, and 100% at 16 minutes through 22 minutes, at which point Buffer B flow was terminated and Buffer A was reinitiated at 100% to equilibrate the column. Ten microliter volumes from individual fractions collected from the Mono-Q column were analyzed by western blot and for transacylase activity as described in Example 2. […] Samples of this purified PhnO protein were used to determine enzyme's acyl donor substrate specificity.
Enzyme reactions were prepared as follows. […] A assay premix was prepared from which 45 microliters was used in each 100 microliter reaction. This 45 microliter premix sample consisted of 40 microliters distilled and deionized water, 2 microliters of 50 mM MgCl2, and 3 microliters of 1.3 mM [^14C]-AMPA (115,392 dpm per microliter). Reactions were initiated by mixing 40 microliters of 125 mM Tris-HCl pH 8.0, […] protein sample and 10 microliters acyl-CoA acyl donor compound in a microcentrifuge tube at room temperature. Each acyl-CoA acyl donor compound was prepared as a stock solution of 1 mM, 5 mM or 10 mM stocks. Each tube was then mixed with 45 microliters of the assay premix containing the [^14C]-AMPA […] substrate, mixed gently and transferred to a 30° C. water bath for 5 minutes. […]

The target in data set [1] is T2, PhnO enzyme (Escherichia coli, UniProt P16691, P2A).
Procedure: The apparent Km of PhnO for the substrate acetyl-CoA was determined in similar experiments. After several attempts to obtain end point kinetics, it was determined that the turnover number was too low to be reliable at AMPA concentrations of about 30 mM and enzyme amounts of about 1-10 ng. An alternative approach was tried using tritium labeled acetyl-CoA. The specific activity of the label was about 40× higher than with [^14C], providing a gain in sensitivity that allowed for the determination of the apparent Km of PhnO for Acetyl-CoA. The [^3H]-acetyl-CoA (Amersham, Inc.) specific activity was 360 mCi/mg or 250 μCi/ml. […] This was accomplished by adjusting the concentration of KH2PO4 buffer (pH 5.5) to 40 mM with a flow rate of 1 ml per minute over an AX100 weak anion exchange column. Each sample was reacted with PhnO and 30 mM AMPA for five minutes at 37° C. and quenched with 100 mM NaOAc pH 4.4 in ethanol, then analyzed by HPLC. [^3H]-acetyl-CoA substrate ranged from 25 micromolar to 1.3 mM in each reaction along with about 5 ng PhnO, 50 mM Tris pH 7.5, 1 mM MnCl2, 1 mM MgCl2, and 30 mM AMPA. Samples were analyzed by HPLC to determine the amounts of N-[^3H]-acetyl-AMPA produced, and [^3H]-acetyl-CoA remaining.
A further data set relates to Wheat immature embryos. Nature of the data set: Wheat embryo germination assay. It is filed as in vivo. As to conditions: for Germinating root length / Germinating shoot length: ten days. As for the experimental part:
Wheat immature embryos were exposed to different concentrations of AMPA and N-acetyl-AMPA in a wheat embryo germination assay. MMSO base media was prepared containing 40 grams per liter maltose, 2 grams per liter GELRITE™, MS salts, and vitamins. Salts, vitamins, and maltose were dissolved in 3500 ml water and the pH was adjusted to 5.8. 500 ml was dispensed into a separate bottle along with 1 gram of GELRITE™ and autoclaved for 17 minutes. After the medium had cooled to about 45° C., AMPA or N-acetyl-AMPA was added to a defined concentration. The mixture was poured into six square Sundae cups under sterile conditions and allowed to solidify.
Immature wheat embryos were isolated from twenty day old seedlings (after anther formation) and inoculated into each MMSO media. Each Sundae cup contained nine immature embryo's. Three separate plates were used for each concentration of AMPA (0, 0.1, 0.15, 0.2, 0.25, 0.3, and 1.0 mM) or N-acetyl-AMPA (0, 0.1, 0.3, 1.0, and 3.0 mM). Sundae cups were incubated for ten days and the length of roots and shoots were determined and compared.

The next data set deals with Tobacco callus. The experiment in a line: Tobacco callus growth on plates with AMPA or N-acetyl AMPA. As to conditions: plates with 0.1 mM or 0.4 mM, up to three weeks. The format is cell-based, Nicotiana tabacum cv. "Samsun". The protocol:
Tobacco callus was generated from leaf pieces of wild type Nicotiana tabacum cv. “Samsun” tobacco on MS104 plates (MS salts 4.3 g/l, sucrose 30 g/l, B5 vitamins 500X 2 ml/l, NAA 0.1 mg/l, and Bacto Agar […]). Callus tissue was applied to plates with or without AMPA and with or without N-acetyl AMPA. Plates contained AMPA or N-acetyl AMPA at concentrations of 0.1 mM or 0.4 mM. Plates were incubated for up to three weeks and monitored periodically.

The target of data set [2] is T2, PhnO enzyme. The protocol:
The ability of the enzyme to produce N-acetyl AMPA from a mixture containing acetyl-CoA and AMPA across a range of pH values was determined. The reactions were carried out in MES/MOPS/Tricine buffer equilibrated to a pH value from 4.5 to 9.0, with actual pH values ranging from 5.2 through 9.0. Briefly, 95 microliters of an appropriate buffer was mixed with 100 microliters of 2×assay mix as described in example 4, and 5 microliters of desalted E. coli lysate containing approximately 400 ng/microliter PhnO protein.
This is another data set of the same source.

Where [3] appears, read: any concentration tested (0.1-3.0 mM).

Where two headings read alike, the source gives them in different places.

In general, Km refers to the concentration of substrate that gives half-maximal velocity. In the case of `CC(=O)SCCNC(=O)CCNC(=O)[C@H](O)C(C)(C)COP(=O)(O)OP(=O)(O)OC[C@H]1O[C@@H](n2cnc3c(N)ncnc32)[C@H](O)[C@@H]1OP(=O)(O)O` [Acetyl-CoA], the figures for the “[^14C]-AMPA % Conversion” value at purified PhnO protein (acyl donor 0.1 mM), on purified PhnO protein (acyl donor 0.5 mM) and on purified PhnO protein (acyl donor 1 mM) were 79.2%, 98.7% and 100.00%, respectively. The “% Activity” value on purified PhnO protein (acyl donor 0.1 mM) was 79.2%; at purified PhnO protein (acyl donor 0.5 mM) it was 98.7%; at purified PhnO protein (acyl donor 1 mM), 100.00%. Further, the Velocity at PhnO enzyme [1] ([Acetyl-CoA] 25 micromolar, 30 mM AMPA) is recorded as 34; at PhnO enzyme [1] ([Acetyl-CoA] 50 micromolar), 66; on PhnO enzyme [1] ([Acetyl-CoA] 75 micromolar), 94; at PhnO enzyme [1] ([Acetyl-CoA] 100 micromolar), 125; at PhnO enzyme [1] ([Acetyl-CoA] 125 micromolar), 150; on PhnO enzyme [1] ([Acetyl-CoA] 150 micromolar) it was 173. Further, the Velocity on PhnO enzyme [1] ([Acetyl-CoA] 175 micromolar) came to 193; on PhnO enzyme [1] ([Acetyl-CoA] 200 micromolar) it was 219; on PhnO enzyme [1] ([Acetyl-CoA] 225 micromolar), 240; on PhnO enzyme [1] ([Acetyl-CoA] 250 micromolar), 259; on PhnO enzyme [1] ([Acetyl-CoA] 375 micromolar), 339; at PhnO enzyme [1] ([Acetyl-CoA] 390 micromolar), 287. In addition, the Velocity at PhnO enzyme [1] ([Acetyl-CoA] 520 micromolar) was 331; on PhnO enzyme [1] ([Acetyl-CoA] 650 micromolar), 352; at PhnO enzyme [1] ([Acetyl-CoA] 780 micromolar), 372; on PhnO enzyme [1] ([Acetyl-CoA] 910 micromolar), 397; on PhnO enzyme [1] ([Acetyl-CoA] 1040 micromolar) it was 411; at PhnO enzyme [1] ([Acetyl-CoA] 1170 micromolar) it was 425. The Velocity on PhnO enzyme [1] ([Acetyl-CoA] 1300 micromolar) was 434. On PhnO enzyme [1] (acetyl-CoA substrate, Lineweaver-Burk plot), the “apparent Vmax” value was “about 824 U/mg protein”. Besides, the Km at PhnO enzyme [1] (read-out: apparent Km of PhnO for acetyl-CoA as a substrate, 30 mM AMPA, Lineweaver-Burk plot of Table 9 data) was 375 to 390 µM.

For the molecule `CCCCC(=O)SCCNC(=O)CCNC(=O)[C@H](O)C(C)(C)COP(=O)(O)OP(=O)(O)OC[C@H]1O[C@@H](n2cnc3c(N)ncnc32)[C@H](O)[C@@H]1OP(=O)(O)O` [Valeryl-CoA, n-valeryl-CoA], the “[^14C]-AMPA % Conversion” value at purified PhnO protein (acyl donor 0.1 mM) is given as 0.24%; on purified PhnO protein (acyl donor 0.5 mM), 0.00%; on purified PhnO protein (acyl donor 1 mM), 0.33%. Besides, the “% Activity” value is reported as 0.24% at purified PhnO protein (acyl donor 0.1 mM), 0.00% at purified PhnO protein (acyl donor 0.5 mM) and 0.33% at purified PhnO protein (acyl donor 1 mM).

With “N-acetyl-amino-methyl-phosphonate [N-acetyl AMPA]”, the Germinating root length is 5.9 ± 1.4 cm with Wheat immature embryos (0.10 mM), 5.2 ± 1.2 cm with Wheat immature embryos (0.30 mM), 5.4 ± 1.5 cm in the data set with Wheat immature embryos (1.00 mM) and 5.9 ± 1.6 cm in the data set with Wheat immature embryos (3.00 mM). Moreover, the Germinating shoot length with Wheat immature embryos (0.10 mM) was 12.0 ± 2.4 cm; with Wheat immature embryos (0.30 mM), 11.7 ± 3.5 cm; in the data set with Wheat immature embryos (1.00 mM), 12.2 ± 3.2 cm; in the data set on Wheat immature embryos (3.00 mM) it was 11.2 ± 2.6 cm. Moreover, in the data set on Wheat immature embryos (setting [3]), the “inhibition of root elongation” value was “only mildly inhibitory”. The inhibition of shoots entry with Wheat immature embryos (setting [3]) was “not inhibitory”. In the data set on Wheat immature embryos (in vivo), the “concentration with no significant effects to immature embryo germination” value is on record as “less than 3.0 mM”. For the same molecule, the “growth of tobacco callus tissue” value with Tobacco callus is “not inhibited”.

B1: PhnO: AMPA acyltransferase protein encoded by the phnO gene within the E. coli phn operon (protein)
chain: MAACELRPATQYDTDAVYALICELKQAEFDHHAFRVGFNANLRDPNMRYHLALLDGEVVGMIGLHLQFHLHHVNWIGEIQELVVMPQARGLNVGSKLLAWAEEEARQAGAEMTELSTNVKRHDAHRFYLREGYEQSHFRFTKAL
Take B1: the “pH of optimum PhnO transacylase activity” value with PhnO enzyme [2] (AMPA and acetyl-CoA as substrates) was approximately 8.0 pH. The “N-Acetyl CoA” value in the data set with PhnO enzyme [2] (Buffer pH 5.0) is 222 nmol; in the data set with PhnO enzyme [2] (Buffer pH 5.5), 234 nmol; with PhnO enzyme [2] (Buffer pH 6.0) it was 252 nmol; in the data set with PhnO enzyme [2] (Buffer pH 6.5) it was 798 nmol; in the data set with PhnO enzyme [2] (Buffer pH 7.0) it was 1620 nmol; with PhnO enzyme [2] (Buffer pH 7.5), 1920 nmol. Moreover, the “N-Acetyl CoA” value stood at 2058 nmol with PhnO enzyme [2] (Buffer pH 8.0), 2010 nmol with PhnO enzyme [2] (Buffer pH 8.5) and 2034 nmol with PhnO enzyme [2] (Buffer pH 9.0). The Velocity in the data set with PhnO enzyme [2] (Buffer pH 5.0) was 22.2 nmole/min/microgram; with PhnO enzyme [2] (Buffer pH 5.5) it was 23.4 nmole/min/microgram; with PhnO enzyme [2] (Buffer pH 6.0), 25.2 nmole/min/microgram; in the data set with PhnO enzyme [2] (Buffer pH 6.5), 79.8 nmole/min/microgram; in the data set with PhnO enzyme [2] (Buffer pH 7.0), 162.0 nmole/min/microgram; with PhnO enzyme [2] (Buffer pH 7.5), 192.0 nmole/min/microgram. For the same molecule, the Velocity in the data set with PhnO enzyme [2] (Buffer pH 8.0) came out at 205.8 nmole/min/microgram; with PhnO enzyme [2] (Buffer pH 8.5), 201.0 nmole/min/microgram; with PhnO enzyme [2] (Buffer pH 9.0), 203.4 nmole/min/microgram. Besides, the “% Turnover” value is on record as 3.7% with PhnO enzyme [2] (Buffer pH 5.0 (mock reaction pH 5.23)); 3.9% with PhnO enzyme [2] (Buffer pH 5.5 (mock reaction pH 5.62)); 4.2% in the data set with PhnO enzyme [2] (Buffer pH 6.0 (mock reaction pH 5.92)); 13.3% with PhnO enzyme [2] (Buffer pH 6.5 (mock reaction pH 6.47)); 27.0% with PhnO enzyme [2] (Buffer pH 7.0 (mock reaction pH 7.0)); 32.0% with PhnO enzyme [2] (Buffer pH 7.5 (mock reaction pH 7.48)). Further, the figures for the “% Turnover” value in the data set with PhnO enzyme [2] (Buffer pH 8.0 (mock reaction pH 8.05)), in the data set with PhnO enzyme [2] (Buffer pH 8.5 (mock reaction pH 8.46)) and with PhnO enzyme [2] (Buffer pH 9.0 (mock reaction pH 9.0)) were 34.3%, 33.5% and 33.9%, respectively.

The record behind these values is patent US7554012B2, “Plants and plant cells exhibiting resistance to AMPA, and methods for making the same” (priority 1998, dated 2009).
